Results as given in ChEMBL document CHEMBL1201862, “PubChem BioAssay data set” (2004).
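Five compound concentrations were applied to cells in 96-well plates for 48 hours; endpoints were derived by simple linear interpolation of the resulting dose-response curve. The concentration for 50% growth inhibition is given as GI50.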 The source made the active and inactive calls. Rule as the data show it: active = GI50 up to about 1.1 µM and inactive = higher.

How the values were obtained:
Experiment in all cases: NCI anticancer screen, dose series, 48 h
[1] = system: 786-0
[2] = system: A498
[3] = system: ACHN
[4] = system: COLO 205
[5] = system: HL-60
[6] = system: HOP-62
[7] = system: KM12
[8] = system: MCF7
[9] = system: MDA-MB-231
[10] = system: MOLT-4
[11] = system: OVCAR-3
[12] = system: PC-3
[13] = system: SF-268
[14] = system: SF-295
[15] = system: SF-539
[16] = system: SNB-75
[17] = system: SR
[18] = system: SW-620
[19] = system: T47D
[20] = system: UO-31

SMILES | GI50 [1] | GI50 [2] | GI50 [3] | GI50 [4] | GI50 [5] | GI50 [6] | GI50 [7] | GI50 [8] | GI50 [9] | GI50 [10] | GI50 [11] | GI50 [12] | GI50 [13] | GI50 [14] | GI50 [15] | GI50 [16] | GI50 [17] | GI50 [18] | GI50 [19] | GI50 [20]
[O-][n+]1onc2c1/C(=N/O)CCC2 | > 100 µM (inactive) | > 100 µM (inactive) | > 100 µM (inactive) | > 100 µM (inactive) | > 100 µM (inactive) | > 100 µM (inactive) | > 100 µM (inactive) | > 100 µM (inactive) | > 100 µM (inactive) | > 100 µM (inactive) | > 100 µM (inactive) | > 100 µM (inactive) | > 100 µM (inactive) | > 100 µM (inactive) | > 100 µM (inactive) | > 100 µM (inactive) | > 100 µM (inactive) | > 100 µM (inactive) | > 100 µM (inactive) | > 100 µM (inactive)
CCC/N=C/c1c(O)c(O)c(C(C)C)c2cc(C)c(-c3c(C)cc4c(C(C)C)c(O)c(O)c(/C=N/CCC)c4c3O)c(O)c12 | 10.2 µM (inactive) | 11.2 µM (inactive) | 3.99 µM (inactive) | 5.25 µM (inactive) | 3.01 µM (inactive) | 10.2 µM (inactive) | 3.45 µM (inactive) | 14.7 µM (inactive) | 13.9 µM (inactive) | 3.41 µM (inactive) | 3.88 µM (inactive) | 2.48 µM (inactive) | 6.92 µM (inactive) | 3.77 µM (inactive) | 5.65 µM (inactive) | 8.79 µM (inactive) | 3.46 µM (inactive) | 6.55 µM (inactive) | 7.74 µM (inactive) | 6.3 µM (inactive)
CCN(CC)CCCNc1c2cc(OC)ccc2nc2cccc([N+](=O)[O-])c12 | 0.071 µM (active) | 0.0127 µM (active) | 0.0407 µM (active) | 0.0238 µM (active) | 0.158 µM (active) | 0.156 µM (active) | 0.11 µM (active) | 0.0333 µM (active) | 0.122 µM (active) | 0.0274 µM (active) | 0.034 µM (active) | 0.0543 µM (active) | 0.0841 µM (active) | 0.147 µM (active) | 0.141 µM (active) | 0.151 µM (active) | 0.00612 µM (active) | 0.0352 µM (active) | 0.151 µM (active) | 0.0402 µM (active)
NS(=O)(=O)c1ccc(NC(=O)Nc2ccccc2F)cc1 | > 100 µM (inactive) | > 100 µM (inactive) | > 100 µM (inactive) | > 100 µM (inactive) | > 100 µM (inactive) | > 100 µM (inactive) | > 100 µM (inactive) | > 100 µM (inactive) | > 100 µM (inactive) | > 100 µM (inactive) | > 100 µM (inactive) | > 100 µM (inactive) | > 100 µM (inactive) | 0.243 µM (active) | > 100 µM (inactive) | > 100 µM (inactive) | > 100 µM (inactive) | > 100 µM (inactive) | 52.5 µM (inactive) | 41.7 µM (inactive)
O=C1C(Cl)=C(Oc2ccc([N+](=O)[O-])cc2)C(=O)c2c(O)ccc(O)c21 | 67.9 µM (inactive) | > 100 µM (inactive) | 54.2 µM (inactive) | 19.9 µM (inactive) | 4.65 µM (inactive) | > 100 µM (inactive) | > 100 µM (inactive) | 46.1 µM (inactive) | 28.4 µM (inactive) | 5.85 µM (inactive) | 33.6 µM (inactive) | > 100 µM (inactive) | > 61.8 µM (inactive) | > 100 µM (inactive) | > 100 µM (inactive) | > 100 µM (inactive) | 3.78 µM (inactive) | 30.2 µM (inactive) | 29.9 µM (inactive) | > 100 µM (inactive)
CC/C(Cl)=N\OC(=O)Nc1ccc(F)c(Cl)c1 | 7.1 µM (inactive) | 16.2 µM (inactive) | 13.8 µM (inactive) | 2.82 µM (inactive) | 1.83 µM (inactive) | 19 µM (inactive) | 17.2 µM (inactive) | 7.1 µM (inactive) | 20 µM (inactive) | 1.48 µM (inactive) | 2.59 µM (inactive) | 16 µM (inactive) | 15.7 µM (inactive) | 18.2 µM (inactive) | 19.8 µM (inactive) | 12.2 µM (inactive) | 4.99 µM (inactive) | 2.55 µM (inactive) | 7.89 µM (inactive) | 18.3 µM (inactive)
